This note sets out measurements from publication PMC6154605, “Multi-Anti-Parasitic Activity of Arylidene Ketones and Thiazolidene Hydrazines against Trypanosoma cruzi and Leishmania spp” (Molecules : A Journal of Synthetic Chemistry and Natural …, 2017).

SMILES strings stand for the structures.

Data set [1] relates to L. braziliensis promastigotes. As to the kind of experiment: Leishmanicidal activity on promastigotes, resazurin. Format: cell-based, Leishmania braziliensis. Put shortly:
(§1)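 Promastigotes (2 × 10^6/well) in Schneider's medium with 20% FBS treated with compound dilutions for 48 h at 26 °C. Resazurin reduction read at 570 and 600 nm; IC50 from duplicate experiments, triplicate concentrations.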
A general note: Resazurin is reduced to fluorescent resorufin, in cell work by metabolically active cells.

Data set [2] relates to L. infantum promastigotes. The data set is described as above. The data set is classed as cell-based, Leishmania infantum. The following applies: Leishmania infantum, 48 h; read-out: IC50 ± SD Promastigotes L. infantum. The essentials: as §1
The test system of a further data set is zebrafish embryos. As to the kind of experiment: Zebrafish embryo toxicity test (LD50). On the procedure:
[…] Only embryos that were clearly undamaged after 60 min of observation were kept and subsequently used. Dechorionated embryos were further manipulated using flame-rounded tip glass Pasteur pipettes. […] In all cases, the embryos were incubated in system water with 1% DMSO (negative control) and the compound at different doses between 8 and 96 hpf. The treatment solution was changed daily. […] At selected time points, namely 24, 48, 72 and 96 hpf, embryotoxicity (= mortality) and morphological characteristics of the embryos were evaluated using a Nikon SMZ800 stereomicroscope. The embryos were evaluated for the presence and morphological development (as appropriate) of somites, tail detachment, eyes, heart beat and blood circulation. All individuals were evaluated at all time points.

Data set [3] concerns the target triosephosphate isomerase from T. cruzi (TcTIM) (Trypanosoma cruzi, UniProt P52270). As to the kind of experiment: Inhibition of triosephosphate isomerase. The following applies: read-out: Percentage of Inhibition TcTIM.
Procedure: Expression and purification of proteins: TcTIM, LmTIM and HsTIM were expressed in Escherichia coli and purified as described in the literature [39]. […] Before use, extensive dialysis against 100 mM triethanolamine/10 mM EDTA (pH 7.4) was performed.
Enzymatic activity assays: Enzymatic activity was determined following the conversion of glyceraldehyde 3-phosphate into dihydroxyacetone phosphate. […] The reaction mixture (1 mL, pH 7.4) contained 100 mM triethanolamine, 10 mM EDTA, 0.2 mM NADH, 1 mM glyceraldehyde 3-phosphate and 0.9 units of α-glycerol phosphate dehydrogenase. The reaction was initiated by the addition of 5 ng/mL of the TcTIM.
The mixture also contained the compounds at the indicated concentrations. Compounds were dissolved in DMSO. After 2 h, 10 µL was withdrawn and added to a final volume of 100 µL of the reaction mixture for the activity assay. The inhibition assay was performed in a 96-well microplate Varioskan spectrophotometer. […] The experiments were performed in triplicate.

Chain of triosephosphate isomerase from T. cruzi (TcTIM) (P52270 whole entry): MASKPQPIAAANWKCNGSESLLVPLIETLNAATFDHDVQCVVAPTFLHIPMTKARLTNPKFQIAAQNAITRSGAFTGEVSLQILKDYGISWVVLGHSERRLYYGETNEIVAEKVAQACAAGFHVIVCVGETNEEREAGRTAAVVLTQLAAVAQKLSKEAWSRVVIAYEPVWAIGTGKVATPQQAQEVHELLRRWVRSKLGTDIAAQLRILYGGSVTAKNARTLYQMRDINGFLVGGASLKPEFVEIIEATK

Consider `C=CCn1c(-c2ccc(Cl)cc2)cs\c1=N/N=C/C=C/c1ccco1` [GAT1033], for which the half-inhibitory concentration (IC50) in data set [1] (Leishmania braziliensis, 48 h, read-out: IC50 ± SD Promastigotes L. braziliensis) was found to be 7 ± 1 µM; in data set [2], 2 ± 0.2 µM. The “SI NCTC/ L. braziliensis” value in data set [1] (ratio IC50 mammalian cell / IC50 parasite (promastigotes)) worked out at 58. Besides, the LD50 without chorion with zebrafish embryos (dechorionated zebrafish embryos, 72 h incubation) is recorded as 27 ± 1 µM. Besides, the LD50 with chorion in the data set with zebrafish embryos (zebrafish embryos with chorion) is more than 100 µM. In data set [3], the inhibition at 100 µM was found to be 0%.

What is called IC50 is the concentration at which inhibition is half-maximal. As usually defined, the inhibition is the drop in the measured response relative to a control, in per cent.
